According to ChEMBL document CHEMBL4033727, “Design, synthesis, in silico and in vitro evaluation of thiophene derivatives: A potent tyrosine phosphatase 1B inhibitor and anticancer activity” (Bioorg Med Chem Lett, 2017):

Key:
[1] = target: T1, Tyrosine-protein phosphatase non-receptor type 1 (Homo sapiens, UniProt P18031); experiment: Inhibition of recombinant PTP1B (unknown origin) using pNPP substrate
T1 sequence (P18031 whole entry): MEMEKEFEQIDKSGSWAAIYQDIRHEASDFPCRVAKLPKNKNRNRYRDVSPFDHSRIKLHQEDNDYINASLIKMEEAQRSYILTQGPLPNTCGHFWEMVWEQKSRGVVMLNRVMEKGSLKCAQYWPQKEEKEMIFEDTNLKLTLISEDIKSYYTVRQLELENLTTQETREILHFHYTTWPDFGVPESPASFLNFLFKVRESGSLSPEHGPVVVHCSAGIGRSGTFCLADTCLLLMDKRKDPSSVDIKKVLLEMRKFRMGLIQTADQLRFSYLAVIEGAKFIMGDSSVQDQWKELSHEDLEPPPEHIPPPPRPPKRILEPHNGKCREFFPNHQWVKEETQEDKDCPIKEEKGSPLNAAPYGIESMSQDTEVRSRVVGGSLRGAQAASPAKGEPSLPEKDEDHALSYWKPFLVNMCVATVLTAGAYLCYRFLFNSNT

HepG2 = experiment: Anticancer activity against human HepG2 cells incubated for 24 hrs by MTT assay; type: functional, cell-based; conditions: HepG2, 24 h
MCF7 = experiment: Anticancer activity against human MCF7 cells incubated for 24 hrs by MTT assay; type: functional, cell-based; conditions: MCF7, 24 h
MDA-MB-231 = experiment: Anticancer activity against human MDA-MB-231 cells incubated for 24 hrs by MTT assay; type: functional, cell-based; conditions: MDA-MB-231, 24 h
HeLa = experiment: Anticancer activity against human HeLa cells incubated for 24 hrs by MTT assay; type: functional, cell-based
K562 = experiment: Anticancer activity against human K562 cells incubated for 24 hrs by MTT assay; type: functional, cell-based; conditions: K562, 24 h
HEK293 = experiment: Cytotoxicity activity against human HEK293 cells incubated for 24 hrs by MTT assay; type: cell-based; conditions: HEK293, 24 h
[2] = Stability in various solvents up to 96 hrs at different temperatures; type: physicochemical

| SMILES | IC50 [1] | IC50 (HepG2) | IC50 (MCF7) | IC50 (MDA-MB-231) | IC50 (HeLa) | IC50 (K562) | IC50 (HEK293) | Stability [2] |
| --- | --- | --- | --- | --- | --- | --- | --- | --- |
| COC(=O)c1scc(-c2ccc(NC(=O)c3ccc(C(F)(F)F)nc3)cc2)c1OC | 7.29 µM | 23.3 µM | 1.47 µM | 7.25 µM | 23.5 µM | 12.5 µM | – | – |
| COC(=O)c1scc(-c2ccc(NC(=O)c3ccc(C#N)nc3)cc2)c1OC | 12.5 µM | 22.5 µM | 9.54 µM | 28.5 µM | – | – | – | – |
| COC(=O)c1scc(-c2ccc(NC(=O)c3ccc(F)c(Cl)n3)cc2)c1OC | 12.3 µM | 10.3 µM | 10.3 µM | 10.3 µM | 16.2 µM | 8.25 µM | – | – |
| COC(=O)c1scc(-c2ccc(NC(=O)c3cccc(I)c3)cc2)c1OC | 14.5 µM | 16.5 µM | 12.2 µM | 8.24 µM | 12.7 µM | 14.7 µM | 42.7 µM | – |
| COC(=O)c1scc(-c2ccc(NC(=O)c3cc(I)ccc3F)cc2)c1OC | 20.6 µM | – | 22.5 µM | 16.5 µM | – | 35.6 µM | 45.2 µM | – |
| COC(=O)c1scc(-c2ccc(NC(=O)c3ccc4ccccc4c3)cc2)c1OC | 5.25 µM | 19.5 µM | 0.09 µM | 5.25 µM | 18.2 µM | 10.2 µM | – | Stable |
| COC(=O)c1scc(-c2ccc(NC(=O)c3cccs3)cc2)c1OC | 24.3 µM | 15.3 µM | 18.6 µM | > 50 µM | > 50 µM | – | > 50 µM | – |
| COC(=O)c1scc(-c2ccc(NC(=O)c3ccc(OC)nc3)cc2)c1OC | 22.3 µM | > 50 µM | 5.25 µM | 15.3 µM | 24.4 µM | 18.2 µM | > 50 µM | – |
| COC(=O)c1scc(-c2ccc(NC(=O)c3ccc(C(F)(F)F)cc3Br)cc2)c1OC | 16.5 µM | 28.2 µM | 22.4 µM | 19.6 µM | 16.2 µM | 9.25 µM | > 50 µM | – |
| COC(=O)c1scc(-c2ccc(NC(=O)c3cccc(C(F)(F)F)c3)cc2)c1OC | 12.3 µM | 32.5 µM | 26.2 µM | 24.6 µM | 19.3 µM | 6.13 µM | – | – |
| COC(=O)c1scc(-c2ccc(NC(=O)c3ccc(C(F)(F)F)cc3)cc2)c1OC | 14.8 µM | 24.6 µM | 24.6 µM | 18.3 µM | 14.4 µM | 9.26 µM | 48.3 µM | – |
| COC(=O)c1scc(-c2ccc(NC(=O)c3ccccn3)cc2)c1OC | 11.3 µM | 10.3 µM | 19.2 µM | 8.25 µM | > 50 µM | 24.2 µM | – | – |
| COC(=O)c1scc(-c2ccc(NC(=O)c3ncc(Cl)cc3Br)cc2)c1OC | 11.2 µM | 9.53 µM | 5.46 µM | 8.36 µM | 18.3 µM | 12.6 µM | > 50 µM | – |
| COC(=O)c1scc(-c2ccc(NC(=O)c3cccc(OC(F)(F)F)c3)cc2)c1OC | 6.37 µM | 0.72 µM | 2.22 µM | 7.54 µM | 16.6 µM | 18.2 µM | – | – |
| COC(=O)c1scc(-c2ccc(NC(=O)Cc3c(Cl)cccc3Cl)cc2)c1OC | 16.3 µM | 13.5 µM | 12.2 µM | 14.2 µM | – | 9.56 µM | – | – |
| COc1cccc2c1C(=O)c1c(O)c3c(c(O)c1C2=O)C[C@@](O)(C(=O)CO)C[C@@H]3O[C@H]1C[C@H](N)[C@H](O)[C@H](C)O1 [DOXORUBICIN] | – | – | 0.41 µM | 0.6 µM | 0.37 µM | 0.07 µM | – | – |
